Test results from publication PMC3070799 (Neuropharmacology, 2011).
pIC50: −log10 of the molar value. Where two headings read alike, the source gives them in different places.

Assays:
human 5-HT3AB receptors = target: T1, human 5-HT3AB receptors (Homo sapiens, UniProt O95264+P46098); assay: Two-electrode voltage clamp of 5-HT-induced currents in Xenopus oocytes; assay type: cell-based
T1 construct: expressed in transfected cells; host or cells: Xenopus laevis oocytes (cRNA from pGEMHE)
T1 sequence (P46098 24-478): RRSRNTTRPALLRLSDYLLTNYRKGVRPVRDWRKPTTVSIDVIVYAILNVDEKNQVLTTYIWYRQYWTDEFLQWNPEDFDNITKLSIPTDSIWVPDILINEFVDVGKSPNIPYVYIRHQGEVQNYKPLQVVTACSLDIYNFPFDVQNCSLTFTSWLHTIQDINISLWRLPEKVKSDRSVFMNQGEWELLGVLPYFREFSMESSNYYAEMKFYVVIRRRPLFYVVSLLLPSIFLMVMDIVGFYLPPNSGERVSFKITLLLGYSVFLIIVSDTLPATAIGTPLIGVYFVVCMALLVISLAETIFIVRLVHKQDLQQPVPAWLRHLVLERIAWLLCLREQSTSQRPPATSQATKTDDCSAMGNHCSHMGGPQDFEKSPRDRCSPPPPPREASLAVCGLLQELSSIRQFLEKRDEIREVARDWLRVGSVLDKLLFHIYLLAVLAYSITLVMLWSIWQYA
T1 sequence (O95264 22-441): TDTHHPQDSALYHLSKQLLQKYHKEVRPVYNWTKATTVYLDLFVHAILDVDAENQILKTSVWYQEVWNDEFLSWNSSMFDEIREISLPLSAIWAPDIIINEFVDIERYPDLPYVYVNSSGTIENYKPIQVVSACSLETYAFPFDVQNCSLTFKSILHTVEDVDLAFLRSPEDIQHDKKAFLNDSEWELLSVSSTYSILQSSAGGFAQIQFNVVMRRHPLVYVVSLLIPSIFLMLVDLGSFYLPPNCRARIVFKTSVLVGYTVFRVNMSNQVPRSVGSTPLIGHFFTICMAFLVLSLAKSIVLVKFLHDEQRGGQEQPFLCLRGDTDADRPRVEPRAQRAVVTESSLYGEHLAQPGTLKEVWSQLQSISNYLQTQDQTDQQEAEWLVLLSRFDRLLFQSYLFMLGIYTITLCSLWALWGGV
Description: (§1) Stage V and VI oocytes were injected with 50 nl of ∼300 ng μl^−1 cRNA, and currents were recorded 1–4 days post-injection. A ratio of 1:3 (A:B) was used for the expression of heteromeric 5-HT3 receptors.
(§2) Xenopus laevis oocyte positive females were purchased from NASCO (Fort Atkinson, Wisconsin, USA) and maintained according to standard methods.
(§3) Currents were filtered at a frequency of 1 kHz. Micro-electrodes were fabricated from borosilicate glass (GC120TF-10, Harvard Apparatus, Edenbridge, Kent, UK) using a two stage horizontal pull (P-87, Sutter Instrument Company, California, USA) and filled with 3 M KCl. […] Oocytes were perfused with saline at a rate of 15 ml min^−1. Drug application was via a simple gravity fed system calibrated to run at the same rate. Extracellular saline contained (mM), 96 NaCl, 2 KCl, 1 MgCl2 and 5 mM HEPES; adjusted to pH 7.4 with NaOH.
(§4) Analysis and curve fitting was performed using Prism V3.02 (GraphPad Software, San Diego, California, USA, www.graphpad.com). Concentration-response data for each oocyte was normalised to the maximum current for that oocyte. For inhibition curves, antagonists were routinely co-applied in the presence of agonist. For PXN, oocytes were also pre-treated with the compound for 20 s. A 2 min wash was used between drug applications. The mean and S.E.M. for a series of oocytes was plotted against agonist or antagonist concentration and iteratively fitted (GraphPad Prism v3.02) to the following Hill equation:(1) IA=Imin+Imax−Imin/1+10^nH(logA50−logA) where A is the concentration of ligand present; IA is the current in the presence of ligand concentration A; Imin is the current when A = 0; Imax is the current when A = ∞ , A50 is the concentration of A which evokes a current equal to (Imax + Imin)/2; and nH is the Hill coefficient. Results are presented as mean ± S.E.M.. Statistical analysis was performed using ANOVA in conjunction with a Dunnett’s post-hoc test.

human 5-HT3A receptors = target: T2, human 5-HT3A receptors (Homo sapiens, UniProt P46098); assay: Two-electrode voltage clamp of 5-HT-induced currents in Xenopus oocytes, incl. co-application; assay type: cell-based
T2 construct: expressed in transfected cells; host or cells: Xenopus laevis oocytes (cRNA from pGEMHE)
T2 sequence (P46098 24-478): T1 sequence (P46098 24-478)
Description: as §1, §2, §3, §4
97) • Scenario 1: Where compounds share a binding site it was assumed that the extent of binding would be determined by a competitive interaction between the compounds such that the proportion of binding sites occupied (Pocc) in the presence of two competing compounds is given by the following expression: (2) Pocc=AKA+BKB/1+AKA+BKB where A and B are the concentrations of two ligands and KA and KB are their affinity constants respectively.
In each individual experiment, for each combination of inhibitors, data values were obtained for IA, IB and IAB. From IA and IB predicted values of IAB1 and IAB2 were also derived. A two-way ANOVA was performed on values of IAB, IAB1 and IAB2 in which the distinction between IAB, IAB1 and IAB2 was treated as a fixed factor and the variation in levels of inhibition between experiments was treated as a random factor. Where the ANOVA indicated a significant difference (P < 0.05) between IAB, IAB1 and IAB2 a post-hoc analysis was carried out using the Waller–Duncan method to identify homogenous subsets with a significance level of 0.05 and a Type I /Type II error ratio if 100.
Our models were based on the following assumptions: 1. that the channel blocking compounds only effect the response that is seen when the channel is open. […] In the case of condition 5 it is possible that the binding of one compound may prevent access of another to its own site. However, in practice this will not influence the analysis since the functional consequence of the binding of both compounds compared to one will be the same, namely complete channel blockade.

glycine α1β receptors = target: glycine α1β receptors; design: method as in Yang et al., 2007; conditions: ref Yang et al., 2007; cited from earlier work
glycine α1 receptors = target: glycine α1 receptors; design: method as in Yang et al., 2007; conditions: ref Yang et al., 2007; cited from earlier work
[1] = abstract, 5-HT-induced responses, Xenopus oocytes, read-out: IC50
[2] = read-out: inhibition at the highest concentration used

SMILES	pIC50 (human 5-HT3AB receptors; IC50, inhibition of 5-HT EC50 response (28 μM 5-HT), oocytes)	Hill slope (human 5-HT3AB receptors; concentration-inhibition curve, 28 μM 5-HT)	pIC50 (human 5-HT3AB receptors; pIC50, inhibition of 5-HT EC50 response (28 μM 5-HT), oocytes)	pIC50 (human 5-HT3A receptors)	ratio of current amplitudes at +40 mV relative to −40 mV (voltage-dependence) (human 5-HT3A receptors; compared with absence of antagonist, Fig. 2E)	Hill slope (human 5-HT3A receptors; concentration-inhibition curve, 1.7 μM 5-HT)	pIC50 (glycine α1β receptors)	pIC50 (glycine α1 receptors)	pIC50 (human 5-HT3AB receptors; [1])	pIC50 (human 5-HT3AB receptors; inhibition of 5-HT EC50 response (28 μM 5-HT), oocytes, read-out: IC50)	inhibition at 1000 µM (human 5-HT3AB receptors; [2])	inhibition (in words) (human 5-HT3A receptors; 1 mM, seen in the 5-HT3A receptor only)	pIC50 (human 5-HT3A receptors; [1])	pIC50 (human 5-HT3A receptors; inhibition of 5-HT EC50 response (1.7 μM 5-HT), oocytes, read-out: IC50)	inhibition at 1000 µM (human 5-HT3A receptors; [2])
CC(C)(O)[C@@H]1[C@H]2OC(=O)[C@@H]1[C@]1(O)C[C@H]3O[C@]34C(=O)O[C@H]2[C@]14C [PTN, picrotin]	2.54	0.99 ± 0.07	2.53	3.33	unaltered	1.33 ± 0.15	~4.52	~5.30	–	–	–	–	–	–	–
C[C@@H]1C(=O)O[C@H]2C[C@@]34[C@H]5C[C@@H](C(C)(C)C)[C@]36[C@@H](OC(=O)[C@@H]6O)O[C@@]4(C(=O)O5)[C@]21O [GA, ginkgolide A]	–	–	–	–	–	–	–	–	< 3.00	< 3.00	≤ 50%	minimal inhibition	< 3.00	< 3.00	≤ 50%
